Experimental data published in patent publication US20030176436A1, “Novel heterocyclic compounds as selective bacterial DHFR inhibitors and their uses thereof” (priority 2001, published 2003).
≈ marks a conversion by molar mass, not a printed value. Where two headings read alike, the source gives them in different places.

Experiments:
H. influenzae = experiment: Microdilution antimicrobial susceptibility test (MIC); assay type: cell-based; conditions: Haemophilus influenzae, read-out: MIC H. influenzae
Method: (§1) Stock solutions of tested compounds were prepared in N,N-dimethylformamide (DMF) at a concentration of 5 mg/mL. Working solutions of the tested compounds were then prepared from the stock solutions, in Mueller-Hinton broth (MHB) with a starting concentration of 64 μg/mL.
(§2) Bacterial inocula were prepared from overnight culture (i.e., one fresh colony from agar plate in 5 ml MHB; H. influenzae was grown in MHB with the addition of yeast extract, haematin, and NAD), centrifuged 2×5 min/3000 rpm (for S. pneumoniae and H. influenzae, 2×10 min/3000 rpm), and dispensed in 5 ml of fresh MHB each time, such that the bacterial suspension is diluted to obtain 100 colony forming units (cfu) in a microplate well (100 μl total volume).
(§3) Microplate wells were filled with two-fold dilutions of test compound (50 μl), starting with 64 μg/ml. Wells were then filled with 50 μl of bacterial inoculum (final volume: 100 μl/well). The plates were incubated at 37° C. for 18-24 hours (S. pneumoniae was grown in a CO2-enriched atmosphere).

P. aeruginosa = experiment: as above; assay type: cell-based; conditions: Pseudomonas aeruginosa; Table 2; 90% inhibition of growth
Method: as §1, §2, §3

E. coli = experiment: as above; assay type: cell-based; conditions: Escherichia coli; Table 2; 90% inhibition of growth
Method: as §1, §2, §3

S. aureus [1] = experiment: as above; assay type: cell-based; conditions: Staphylococcus aureus
Method: as §1, §2, §3

E. faecalis = experiment: as above; assay type: cell-based; conditions: Enterococcus faecalis; Table 2; 90% inhibition of growth
Method: as §1, §2, §3

S. pneumoniae = experiment: as above; assay type: cell-based; conditions: Streptococcus pneumoniae; Table 2; 90% inhibition of growth
Method: as §1, §2, §3

M. catarrhalis = experiment: as above; assay type: cell-based; conditions: Moraxella catarrhalis; Table 2; 90% inhibition of growth
Method: as §1, §2, §3

human DHFR (hDHFR) = biological target: T1, human DHFR (hDHFR) (Homo sapiens, UniProt P00374); experiment: DHFR enzyme assay, Ki determination, human DHFR; assay type: biochemical; conditions: Table 3
T1 construct: result in the amplification of a 186 amino acid hDHFR coding region; made in house; host or cells: E. coli Top10
T1 sequence (P00374 1-187): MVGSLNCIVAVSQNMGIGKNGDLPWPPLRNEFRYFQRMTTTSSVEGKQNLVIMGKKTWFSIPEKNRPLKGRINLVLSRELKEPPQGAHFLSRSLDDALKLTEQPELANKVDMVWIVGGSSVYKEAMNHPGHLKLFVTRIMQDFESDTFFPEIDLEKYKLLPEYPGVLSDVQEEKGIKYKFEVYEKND
Method: The human DHFR cDNA was cloned by PCR from the Human Universal Quick-clone™ cDNA purchased from Clontech.
The PCR fragment was digested with restriction enzymes NdeI and HindIII, and then ligated into a derivative of the pKK223-3 expression vector (Amersham Pharmacia). The final expression vector (pFW96.2) was transformed into E. coli Top10 F40 and hDHFR protein was induced by the addition of 1 mM IPTG followed by incubation at 37° C. for 4 hrs. Recombinant human DHFR was purified based on a previously published procedure (2).
(§4) Dihydrofolic acid and NADPH were purchased from Sigma. Enzyme assays were adapted for microtitre format from a previously published procedure (2, 3). All assays were performed in a 250 μl volume in 96-well microtitre plates. Typical assays consisted of 20 nM DHFR (human or E. coli), 100 μM NADPH, and 50 μM dihydrofolic acid in 100 mM HEPES pH 8, 10 mM KCl, and 10 mM MgCl2. The assay was monitored spectrophotometrically for the conversion of NADPH to NADP+, which results in a decrease in absorbance at 340 nm.
(§5) Five microliters of inhibitor compound in DMSO was added to 120 μl of enzyme solution (40 nM DHFR and 200 μM NADPH). The reaction was initiated by the addition of 125 μl of 100 μM dihydrofolic acid. The final concentrations in the assay were 20 nM DHFR, 100 μM NADPH, 50 μM dihydrofolic acid, and a range of 500 μM to 20 nM inhibitor compound. The final DMSO concentration was 2% of the total volume. Reactions were monitored as described above.
V=(Vmax[S])/(Km(1+I/Ki)+[S]), where S=dihydrofolate, Km=Michaelis constant for dihydrofolate, I=inhibitor concentration.

bacterial DHFR (bDHFR) = biological target: T2, bacterial DHFR (bDHFR) (Escherichia coli, UniProt P0ABQ4); experiment: DHFR enzyme assay, Ki determination, bacterial DHFR; assay type: biochemical, E. coli
T2 construct: gift of Eric Brown, McMaster University
Method: Human and Bacterial DHFR: E. coli DHFR was kindly provided by Eric Brown of MacMaster University.
as §4
as §5, with “The” for “Five microliters of inhibitor compound in DMSO was added to 120 μl of enzyme solution (40 nM DHFR and 200 μM NADPH). The”

S. cerevisiae = experiment: Microdilution susceptibility test (MIC), yeast as indicator of cytotoxicity; assay type: cell-based; conditions: Saccharomyces cerevisiae; Table 2; 90% inhibition of growth
Source text: The following table of compounds of one aspect of the invention have potent antimicrobial activity against S. aureus bacteria and are anticipated to have physical-chemical properties similar to those of orally absorbed and bioavailable drugs and drug-like compounds. Antibacterial activity for a variety of bacterial species are shown (S. aureus, S. pneumoniae, E. faecalis, M. catarrhalis, and H. influenzae). The yeast cell (S. cerevisiae) in this panel of organisms is an indicator of potential cytotoxicity in mammalian cells.
as §1, §3

S. aureus [2] = experiment: S. aureus mouse septicaemia model; assay type: in vivo; conditions: administered orally; mouse protection model
Method: Systemic models of infection are described in the literature. The following conditions can be used to assay the compounds in this application. Bacteria are grown in Mueller-Hinton agar at 37° C. during 24 h. For each experiment, a bacterial suspension is prepared by inoculating 4-5 bacterial colonies onto Mueller-Hinton broth (MHB) and by incubating at 37° C. for 24 hours to yield approximately 10^9 CFU/ml. BalbC female mice are supplied by Charles River (Deutschland). Animals are infected by a single administration of an LD100 dose of bacterial culture suspension (1×10^8 CFU/100 μl per animal) in the tail vein. A careful clinical examination is made several times a day, and obvious clinical symptoms and mortality are recorded. Animals survival is observed for a period of 6 days. Azithromycin is dissolved in 0.5% methocel in saline solution and administered orally. Test compounds are micronized with mortar and pestle and then dissolved in methocel saline solution with 3% of DMF. The first dose is administered 30 minutes after infection, with following doses every 12 hours for 3 days.
In vivo Efficacy Testing—S. aureus Mouse Septicaemia Model.
Several compounds were tested in a S. aureus mouse protection models for efficacy. Two compounds, 25 and 62, protected 40% of treated animals from the lethal infection when administered orally.

[3] = Table 2, 90% inhibition of growth
[4] = Table 2, 90% inhibition of growth, read-out: MIC S. aureus
[5] = second part of table, read-out: bDHFR

SMILES	MIC (H. influenzae; [3]) [µg/mL]	MIC (P. aeruginosa) [µg/mL]	MIC (E. coli) [µg/mL]	MIC (S. aureus [1]; [4]) [µg/mL]	MIC (E. faecalis) [µg/mL]	MIC (S. pneumoniae) [µg/mL]	MIC (M. catarrhalis) [µg/mL]	Ki (human DHFR (hDHFR)) [nM]	Ki (bacterial DHFR (bDHFR); Table 3, read-out: bDHFR Ki) [µM]	MIC (S. cerevisiae) [µg/mL]	MIC (H. influenzae) [µg/mL]	MIC (S. aureus [1]; MIC, average, read-out: S. aureus (μg/ml) avg) [µg/mL]	treated animals protected from the lethal infection (S. aureus [2]) [%]	Ki (bacterial DHFR (bDHFR); average, read-out: bDHFR Ki/(μM) avg) [µM]	Ki (bacterial DHFR (bDHFR); [5]) [µM]
CN(Cc1cnc2nc(N)nc(N)c2n1)c1ccc(C(=O)Nc2ccc(O)cc2)cc1 [Compound 1]	2 to 8 (≈ 4.8 to 19.2 µM)	> 64	> 64	16 to 64 (≈ 38.4 to 154 µM)	16 to 64 (≈ 38.4 to 154 µM)	< 2	2 to 8 (≈ 4.8 to 19.2 µM)	500 to 999	< 0.1	> 64	–	–	–	–	–
CN(Cc1cnc2nc(N)nc(N)c2n1)c1ccc(C(=O)NCc2ccccn2)cc1 [Compound 3]	2 to 8 (≈ 4.81 to 19.3 µM)	> 64	> 64	2 to 8 (≈ 4.81 to 19.3 µM)	2 to 8 (≈ 4.81 to 19.3 µM)	2 to 8 (≈ 4.81 to 19.3 µM)	2 to 8 (≈ 4.81 to 19.3 µM)	1000 to 5000	< 0.1	> 64	–	–	–	–	–
CN(Cc1cnc2nc(N)nc(N)c2n1)c1ccc(C(=O)NCc2cccnc2)cc1 [Compound 4]	2 to 8 (≈ 4.81 to 19.3 µM)	> 64	> 64	16 to 64 (≈ 38.5 to 154 µM)	2 to 8 (≈ 4.81 to 19.3 µM)	2 to 8 (≈ 4.81 to 19.3 µM)	16 to 64 (≈ 38.5 to 154 µM)	500 to 999	< 0.1	> 64	–	–	–	–	–
CN(Cc1cnc2nc(N)nc(N)c2n1)c1ccc(C(=O)NCc2ccncc2)cc1 [Compound 5]	2 to 8 (≈ 4.81 to 19.3 µM)	> 64	> 64	16 to 64 (≈ 38.5 to 154 µM)	2 to 8 (≈ 4.81 to 19.3 µM)	2 to 8 (≈ 4.81 to 19.3 µM)	2 to 8 (≈ 4.81 to 19.3 µM)	500 to 999	< 0.1	> 64	–	–	–	–	–
Nc1nc(N)c2nc(CNc3ccccc3)cnc2n1 [Compound 6]	2 to 8 (≈ 7.48 to 29.9 µM)	> 64	> 64	2 to 8 (≈ 7.48 to 29.9 µM)	2 to 8 (≈ 7.48 to 29.9 µM)	2 to 8 (≈ 7.48 to 29.9 µM)	2 to 8 (≈ 7.48 to 29.9 µM)	> 5000	1 to 5	> 64	–	–	–	–	–
Nc1nc(N)c2nc(CNc3cccc([N+](=O)[O-])c3)cnc2n1 [Compound 7]	< 2	> 64	> 64	< 2	< 2	< 2	< 2	> 5000	0.1 to 0.499	> 64	–	–	–	–	–
Nc1nc(N)c2nc(CNc3ccc4c(c3)OCO4)cnc2n1 [Compound 8]	2 to 8 (≈ 6.42 to 25.7 µM)	> 64	> 64	2 to 8 (≈ 6.42 to 25.7 µM)	2 to 8 (≈ 6.42 to 25.7 µM)	2 to 8 (≈ 6.42 to 25.7 µM)	2 to 8 (≈ 6.42 to 25.7 µM)	> 5000	1 to 5	> 64	–	–	–	–	–
CN(Cc1cnc2nc(N)nc(N)c2n1)c1ccccc1 [Compound 9]	< 2	> 64	> 64	2 to 8 (≈ 7.11 to 28.4 µM)	< 2	< 2	2 to 8 (≈ 7.11 to 28.4 µM)	> 5000	0.1 to 0.499	> 64	–	–	–	–	–
Nc1nc(N)c2nc(CNc3ccc4nc(S)sc4c3)cnc2n1 [Compound 10]	16 to 64 (≈ 44.9 to 180 µM)	> 64	> 64	2 to 8 (≈ 5.61 to 22.4 µM)	< 2	2 to 8 (≈ 5.61 to 22.4 µM)	< 2	> 5000	0.1 to 0.499	16 to 64 (≈ 44.9 to 180 µM)	–	–	–	–	–
Nc1nc(N)c2nc(CNc3cc(Cl)cc(Cl)c3)cnc2n1 [Compound 11]	–	> 64	> 64	< 2	< 2	< 2	< 2	> 5000	0.5 to 0.999	> 64	> 64	–	–	–	–
Nc1nc(N)c2nc(CNc3ccc([N+](=O)[O-])cc3O)cnc2n1 [Compound 12]	2 to 8 (≈ 6.09 to 24.4 µM)	> 64	> 64	> 64	–	< 2	16 to 64 (≈ 48.7 to 195 µM)	1000 to 5000	0.1 to 0.499	> 64	–	–	–	–	–
CN(Cc1cnc2nc(N)nc(N)c2n1)c1cccc([N+](=O)[O-])c1 [Compound 14]	< 2	> 64	> 64	< 2	< 2	< 2	< 2	> 5000	< 0.1	> 64	–	–	–	–	–
Nc1nc(N)c2nc(CNc3ccc(F)c([N+](=O)[O-])c3)cnc2n1 [Compound 15]	< 2	> 64	> 64	< 2	< 2	< 2	< 2	> 5000	0.1 to 0.499	2 to 8 (≈ 6.06 to 24.2 µM)	–	–	–	–	–
Nc1nc(N)c2nc(CNc3cccc(OCc4ccccc4)c3)cnc2n1 [Compound 16]	> 64	> 64	> 64	< 2	< 2	< 2	< 2	> 5000	< 0.1	> 64	–	–	–	–	–
COC(=O)c1ccc(N(C)Cc2cnc3nc(N)nc(N)c3n2)cc1 [Compound 17]	< 2	> 64	> 64	< 2	< 2	< 2	< 2	–	< 0.1	> 64	–	–	–	–	–
CC(c1csc2ccccc12)N(C)c1ncc2c(N)nc(N)nc2n1 (stereo not shown) [Compound 25]	–	–	–	–	–	–	–	–	–	–	–	0.25 (≈ 0.711 µM)	40	0.004	< 0.004
Cc1ccc(C(C)N(C)c2ncc3c(N)nc(N)nc3n2)c2ccccc12 (stereo not shown) [Compound 62]	–	–	–	–	–	–	–	–	–	–	–	–	40	–	0.802
